Drawing on US9034855B2, “Substituted phenylacetate and phenylpropane amides and use thereof” (Bayer Intellectual Property GmbH, priority 2010, dated 2015), this text covers IC50 for 19 molecules.

In assay [1] the target is T1, human V2 receptor (Homo sapiens, UniProt P30518).
T1 construct: expressed in transfected cells; host or cells: CHO K1 (ATCC), constitutively expressing modified aequorin, co-transfected with promiscuous G-alpha-16
As to the kind of experiment: Cellular in vitro assay for determining the vasopressin receptor activity (aequorin luminescence, recombinant CHO cells), human V2. It is filed as cell-based. The conditions noted are these: CHO cells expressing aequorin and Gα16, transfected with human V2 receptor; agonist [Arg8]-vasopressin; read-out: IC50 hV2. The text has this:
(§1) B-1. Cellular In Vitro Assay for Determining the Vasopressin Receptor Activity
(§2) The identification of agonists and antagonists of the V1a and V2 vasopressin receptors from humans and rats and also the quantification of the activity of the substances described here takes place using recombinant cell lines. These cells derive originally from a hamster's ovary epithelial cell (Chinese Hamster Ovary, CHO K1, ATCC: American Type Culture Collection, Manassas, Va. 20108, USA). The test cell lines constitutively express a modified form of the calcium-sensitive photoprotein aequorin, which, after reconstitution with the cofactor coelenterazine, emits light when there are increases in the free calcium concentration (Rizzuto R., Simpson A. W., Brini M., Pozzan T.; Nature 358 (1992) 325-327). In addition, the cells are stably transfected with the human or rat V1a or V2 receptors. In the case of the Gs-coupling V2 receptors, the cells are stably transfected with a further gene, which codes for the promiscuous Gα16 protein (Amatruda T. T., Steele D. A., Slepak V. Z., Simon M A., Proc. Na. Acad. Sci. USA 88 (1991), 5587-5591), either independently or as a fusion gene. The resulting vasopressin receptor test cells react to stimulation of the recombinantly expressed vasopressin receptors by intracellular release of calcium ions, which can be quantified by the resulting aequorin luminescence using a suitable luminometer (Milligan G., Marshall F., Rees S., Trends in Pharmaco. Sci. 17 (1996) 235-237).
(§3) On the day before the assay, the cells are plated out in culture medium (DMEM, 10% FCS, 2 mM glutamine, 10 mM HEPES) in 384-well microtiter plates and kept in a cell incubator (96% atmospheric humidity, 5% v/v carbon dioxide, 37° C.). On the day of the assay, the culture medium is replaced by a Tyrode solution (140 mM sodium chloride, 5 mM potassium chloride, 1 mM magnesium chloride, 2 mM calcium chloride, 20 mM glucose, 20 mM HEPES), which additionally contains the cofactor coelenterazine (50 μM), and the microtiter plate is then incubated for a further 3-4 hours. The test substances in various concentrations are placed for 10 to 20 minutes in the wells of the microtiter plate before the agonist [Arg8]-vasopressin is added, and the resulting light signal is measured immediately in the luminometer. The IC50 values are calculated using the GraphPad PRISM computer program (Version 3.02).
(§4) Table A below lists representative IC50 values for the compounds according to the invention transfected with the human V1a or V2 receptor: […]

In assay [2] the target is T2, human V1a receptor (Homo sapiens, UniProt P37288).
T2 construct: expressed in transfected cells; host or cells: CHO K1 (ATCC), constitutively expressing modified aequorin
As to the kind of experiment: Cellular in vitro assay for determining the vasopressin receptor activity (aequorin luminescence, recombinant CHO cells), human V1a. The settings on record: CHO cells expressing aequorin, transfected with human V1a receptor; agonist [Arg8]-vasopressin; read-out: IC50 hV1a. It is filed as cell-based.
From the text: as §1, §2, §3, §4

As usually defined, the IC50 is the concentration that gives 50% inhibition.

T2 sequence (P37288 whole entry): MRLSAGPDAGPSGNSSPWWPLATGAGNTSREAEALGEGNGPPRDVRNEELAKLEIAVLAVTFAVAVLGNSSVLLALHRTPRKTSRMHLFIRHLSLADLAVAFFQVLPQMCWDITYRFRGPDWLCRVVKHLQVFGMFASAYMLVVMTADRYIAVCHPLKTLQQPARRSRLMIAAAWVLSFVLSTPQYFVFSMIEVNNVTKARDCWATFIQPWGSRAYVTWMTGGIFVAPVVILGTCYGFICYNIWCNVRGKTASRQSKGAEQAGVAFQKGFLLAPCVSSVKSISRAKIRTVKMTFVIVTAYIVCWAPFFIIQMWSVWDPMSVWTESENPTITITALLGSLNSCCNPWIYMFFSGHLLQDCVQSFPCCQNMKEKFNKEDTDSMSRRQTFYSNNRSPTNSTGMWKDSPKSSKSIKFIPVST
T1 sequence (P30518 whole entry): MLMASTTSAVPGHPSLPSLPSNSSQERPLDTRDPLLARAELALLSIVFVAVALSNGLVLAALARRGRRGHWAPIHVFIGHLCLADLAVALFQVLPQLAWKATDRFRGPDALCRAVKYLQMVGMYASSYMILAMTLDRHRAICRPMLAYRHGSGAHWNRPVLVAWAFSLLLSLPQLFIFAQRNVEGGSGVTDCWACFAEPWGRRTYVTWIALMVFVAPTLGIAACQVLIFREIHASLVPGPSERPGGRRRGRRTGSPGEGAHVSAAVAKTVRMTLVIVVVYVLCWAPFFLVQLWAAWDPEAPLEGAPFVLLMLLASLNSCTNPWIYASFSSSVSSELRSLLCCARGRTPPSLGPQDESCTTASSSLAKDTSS

In the case of `COC(=O)C(C)(C)NC(=O)[C@](C)(NC(=O)Cn1nc(-c2ccc(Cl)cc2)n(C[C@H](O)C(F)(F)F)c1=O)c1cccc(C(F)(F)F)c1` [Example 20, Methyl N-{(2R)-2-[({3-(4-chlorophenyl)-5-oxo-4-[(2S)-3,3,3-trifluoro-2-hydroxypropyl]-4,5-dihydro-1H-1,2,4-triazol-1-yl}acetyl)amino]-2-[3-(trifluoromethyl)phenyl]propanoyl}-2-methylalaninate], the 50% inhibitory concentration (IC50) in assay [1] was 4.5 nM; in assay [2] it was 2.4 nM.

With `CC(C)(NC(=O)C(NC(=O)Cn1nc(-c2ccc(Cl)cc2)n(C[C@H](O)C(F)(F)F)c1=O)c1cccc(C(F)(F)F)c1)C(N)=O` (single isomer, unassigned) [Example 29], the IC50 stood at 3.3 nM in assay [1] and 1 nM in assay [2].

Turning to `NC(=O)CCNC(=O)C(NC(=O)Cn1nc(-c2ccc(Cl)cc2)n(C[C@H](O)C(F)(F)F)c1=O)c1cccc(C(F)(F)F)c1` (single isomer, unassigned) [Example 17], the 50% inhibitory concentration (IC50) in assay [1] was determined as 22 nM; in assay [2], 1420 nM.

For `COCCn1c(-c2ccc(Cl)s2)nn(CC(=O)NC(C(=O)NC(C)(C)CO)c2cccc(C(F)(F)F)c2)c1=O` (single isomer, unassigned) [Example 43, 2-({[3-(5-Chloro-2-thienyl)-4-(2-methoxyethyl)-5-oxo-4,5-dihydro-1H-1,2,4-triazol-1-yl]acetyl}amino)-N-(1-hydroxy-2-methylpropan-2-yl)-2-[3-(trifluoromethyl)phenyl]acetamide], the IC50 in assay [1] came out at 1600 nM; in assay [2], 60 nM.

Consider `O=C(O)CCNC(=O)C(NC(=O)Cn1nc(-c2ccc(Cl)cc2)n(C[C@H](O)C(F)(F)F)c1=O)c1cccc(C(F)(F)F)c1` (stereo partly drawn) [Example 14, N-{[({3-(4-Chlorophenyl)-5-oxo-4-[(2S)-3,3,3-trifluoro-2-hydroxypropyl]-4,5-dihydro-1H-1,2,4-triazol-1-yl}acetyl)amino][3-(trifluoromethyl)phenyl]acetyl}-beta-alanine], for which the IC50 in assay [1] is 9 nM; in assay [2] it was 53 nM.

Consider `O=C(Cn1nc(-c2ccc(Cl)cc2)n(C[C@H](O)C(F)(F)F)c1=O)NC(C(=O)NCCOC(F)(F)F)c1cccc(C(F)(F)F)c1` (single isomer, unassigned) [Example 60], for which the 50% inhibitory concentration (IC50) in assay [1] is 19.7 nM; in assay [2], 3 nM.

For `COCCNC(=O)C[C@H](NC(=O)Cn1nc(-c2ccc(Cl)cc2)n(C[C@H](O)C(F)(F)F)c1=O)c1ccccc1C(F)(F)F` [Example 58, (3S)-3-[({3-(4-Chlorophenyl)-5-oxo-4-[(2S)-3,3,3-trifluoro-2-hydroxypropyl]-4,5-dihydro-1H-1,2,4-triazol-1-yl}acetyl)amino]-N-(2-methoxyethyl)-3-[2-(trifluoromethyl)phenyl]propanamide], the IC50 was 136 nM in assay [1] and 3.5 nM in assay [2].

Regarding `CC(C)(NC(=O)C(NC(=O)Cn1nc(-c2ccc(Cl)cc2)n(C2CC2)c1=O)c1cccc(C(F)(F)F)c1)C(=O)O` (racemic) [Example 12, N-{({[3-(4-Chlorophenyl)-4-cyclopropyl-5-oxo-4,5-dihydro-1H-1,2,4-triazol-1-yl]acetyl}amino) [3-(trifluoromethyl)phenyl]acetyl}-2-methylalanine], the IC50 in assay [1] came to 182 nM; in assay [2] it was 24 nM.

Consider `CC(C)(NC(=O)C[C@H](NC(=O)Cn1nc(-c2ccc(Cl)cc2)n(C[C@H](O)C(F)(F)F)c1=O)c1cccc(C(F)(F)F)c1)C(=O)O` [Example 39, N-{(3S)-3-[({3-(4-Chlorophenyl)-5-oxo-4-[(2S)-3,3,3-trifluoro-2-hydroxypropyl]-4,5-dihydro-1H-1,2,4-triazol-1-yl}acetyl)amino]-3-[3-(trifluoromethyl)phenyl]propanoyl}-2-methylalanine], for which the IC50 in assay [1] came out at 0.8 nM; in assay [2] it was 4.9 nM.

On to `O=C(Cn1nc(-c2ccc(Cl)cc2)n(C[C@H](O)C(F)(F)F)c1=O)NC(C(=O)NC1(C(=O)O)CC1)c1cccc(C(F)(F)F)c1` (single isomer, unassigned) [Example 3], for which the IC50 in assay [1] was 467 nM; in assay [2], 554 nM.

As to `CC(C)(NC(=O)C(NC(=O)Cn1nc(-c2ccc(Cl)cc2)n(CCC(F)(F)F)c1=O)c1ccccc1C(F)(F)F)C(N)=O` (racemic) [Example 32, N^2-{({[3-(4-Chlorophenyl)-5-oxo-4-(3,3,3-trifluoropropyl)-4,5-dihydro-1H-1,2,4-triazol-1-yl]acetyl}amino) [2-(trifluoromethyl)phenyl]acetyl}-2-methylalaninamide], the concentration for half-maximal inhibition (IC50) in assay [1] was 1270 nM; in assay [2], 7.1 nM.

In the case of `COCCNC(=O)C[C@H](NC(=O)Cn1nc(-c2ccc(Cl)cc2)n(C[C@H](O)C(F)(F)F)c1=O)c1cccc(C(F)(F)F)c1` [Example 57, (3S)-3-[({3-(4-Chlorophenyl)-5-oxo-4-[(2S)-3,3,3-trifluoro-2-hydroxypropyl]-4,5-dihydro-1H-1,2,4-triazol-1-yl}acetyl)amino]-N-(2-methoxyethyl)-3-[3-(trifluoromethyl)phenyl]propanamide], the 50% inhibitory concentration (IC50) in assay [1] was 7.4 nM; in assay [2], 14.5 nM.

With `COC(=O)C(C)(C)NC(=O)C(NC(=O)Cn1nc(-c2ccc(Cl)cc2)n(C2CC2)c1=O)c1cccc(C(F)(F)F)c1` (racemic) [Example 11, Methyl N-{({[3-(4-chlorophenyl)-4-cyclopropyl-5-oxo-4,5-dihydro-1H-1,2,4-triazol-1-yl]acetyl}-amino)[3-(trifluoromethyl)phenyl]acetyl}-2-methylalaninate], the IC50 in assay [1] worked out at 497 nM; in assay [2], 28 nM.

On to `COC(=O)C(C)(C)NC(=O)C[C@H](NC(=O)Cn1nc(-c2ccc(Cl)cc2)n(C[C@H](O)C(F)(F)F)c1=O)c1cccc(C(F)(F)F)c1` [Example 38, Methyl N-{(3S)-3-[({3-(4-chlorophenyl)-5-oxo-4-[(2S)-3,3,3-trifluoro-2-hydroxypropyl]-4,5-dihydro-1H-1,2,4-triazol-1-yl}acetyl)amino]-3-[3-(trifluoromethyl)phenyl]propanoyl}-2-methylalaninate], for which the IC50 in assay [1] was 38.6 nM; in assay [2], 32.8 nM.

Consider `O=C(C[C@H](NC(=O)Cn1nc(-c2ccc(Cl)cc2)n(C[C@H](O)C(F)(F)F)c1=O)c1ccccc1C(F)(F)F)NCCO` [Example 53, (3S)-3-[({3-(4-Chlorophenyl)-5-oxo-4-[(2S)-3,3,3-trifluoro-2-hydroxypropyl]-4,5-dihydro-1H-1,2,4-triazol-1-yl}acetyl)amino]-N-(2-hydroxyethyl)-3-[2-(trifluoromethyl)phenyl]propanamide], for which the IC50 worked out at 2.6 nM in assay [1] and 0.9 nM in assay [2].

For `NC(=O)CCNC(=O)C(NC(=O)Cn1nc(-c2ccc(Cl)cc2)n(C[C@H](O)C(F)(F)F)c1=O)c1cccc(C(F)(F)F)c1` (single isomer, unassigned) [Example 18], the IC50 in assay [1] was 1.9 nM; in assay [2], 1.2 nM.

For the molecule `CCOC(=O)C1(NC(=O)C(NC(=O)Cn2nc(-c3ccc(Cl)cc3)n(C3CC3)c2=O)c2cccc(C(F)(F)F)c2)CC1` (racemic) [Example 5, Ethyl 1-({({[3-(4-chlorophenyl)-4-cyclopropyl-5-oxo-4,5-dihydro-1H-1,2,4-triazol-1-yl]acetyl}-amino) [3-(trifluoromethyl)phenyl]acetyl}amino)cyclopropanecarboxylate], the IC50 was 1170 nM in assay [1] and 42 nM in assay [2].

`COCCNC(=O)C(NC(=O)Cn1nc(-c2ccc(Cl)cc2)n(C[C@H](O)C(F)(F)F)c1=O)c1ccccc1C(F)(F)F` (stereo partly drawn) [Example 56, 2-[({3-(4-Chlorophenyl)-5-oxo-4-[(2S)-3,3,3-trifluoro-2-hydroxypropyl]-4,5-dihydro-1H-1,2,4-triazol-1-yl}acetyl)amino]-N-(2-methoxyethyl)-2-[2-(trifluoromethyl)phenyl]acetamide]: the values for the IC50 in assay [1] and in assay [2] were 144 nM and 3 nM, respectively.

As to `O=C(Cn1nc(-c2ccc(Cl)cc2)n(C[C@H](O)C(F)(F)F)c1=O)NC(C(=O)NCCO)c1cccc(C(F)(F)F)c1` (stereo partly drawn) [Example 49, 2-[({3-(4-Chlorophenyl)-5-oxo-4-[(2S)-3,3,3-trifluoro-2-hydroxypropyl]-4,5-dihydro-1H-1,2,4-triazol-1-yl}acetyl)amino]-N-(2-hydroxyethyl)-2-[3-(trifluoromethyl)phenyl]acetamide], the IC50 in assay [1] was found to be 7.6 nM; in assay [2] it was 2.2 nM.
